Results: US20150094474A1, “AGRICULTURAL CHEMICALS” (Redx Pharma Ltd., priority 2012, published 2015)

Legend:
Lolium perenne = experiment: Herbicidal bioassay, Lolium perenne / rye grass (% necrosis); assay type: in vivo
Procedure: A laboratory bioassay was conducted to screen ten compounds (Fluazifop (25); Ethyl fluazifop (62); five fluazifop analogues: 27, 28, 63, 64 and 65; mesofulfuron (6); and two mesosulfuron analogues: 8 and 61. for activity against Lolium perenne, barley, peas and Chinese cabbage. Compounds were diluted in DMSO. Controls were performed using both DMSO and water.
Plants were obtained as seeds and were grown to the 2-4 true leaf stage. Plants were grown individually in seed trays. Each plant (in an approximately 3 cm diameter plug) was then detached from the tray for spraying. Environmental conditions were closely monitored and recorded and were within the optimal range of the target species.
The compounds were screened at a range of six concentrations, eg. 0.05%, 0.01%, 0.005%, 0.001%, 0.0005% and 0.0001%. Treatments will be applied directly onto the plants, using a potter tower.
One plant of each type will be sprayed using a potter tower. The 4 different types of weeds will be placed in a 10 cm diameter area underneath the potter sprayer and sprayed simultaneously. The growth of the plants and any Phytotoxicity effects will then be assessed at specified growth intervals, according to EPPO guideline PP1/135. Five replicates will be performed for each treatment, for each species.

peas = experiment: Herbicidal bioassay, peas (% necrosis); assay type: in vivo
In short: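 Scoring of % necrosis followed EPPO guideline PP1/135 at specified growth intervals, five replicates per species and treatment. Plants at the 2-4 true leaf stage received Potter-tower sprays of DMSO-diluted compounds across six levels from 0.0001% to 0.05%, with water and DMSO controls.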

Compound: CCOC(=O)C(C)Oc1ccc(Oc2ccc(C(F)(F)F)cn2)cc1 (stereo not drawn) [Fluazifop Ethyl ester (62)]
- Sum of % necrosis in Rye grass (Lolium perenne; Dose 0.00005, Day 0): C (less than 50% necrosis)
- Sum of % necrosis in Rye grass (Lolium perenne; Dose 0.00005, Day 1): C (less than 50% necrosis)
- Sum of % necrosis in Rye grass (Lolium perenne; Dose 0.00005, Day 3): C (less than 50% necrosis)
- Sum of % necrosis in Rye grass (Lolium perenne; Dose 0.00005, Day 7): C (less than 50% necrosis)
- Sum of % necrosis in Rye grass (Lolium perenne; Dose 0.00005, Day 10): C (less than 50% necrosis)
- Sum of % necrosis in Rye grass (Lolium perenne; Dose 0.00005, Day 14): C (less than 50% necrosis)
- Sum of % necrosis in Rye grass (Lolium perenne; Dose 0.00005, Day 21): B (50%-80% necrosis)
- Sum of % necrosis in Rye grass (Lolium perenne; Dose 0.0001, Day 0): C (less than 50% necrosis)
- Sum of % necrosis in Rye grass (Lolium perenne; Dose 0.0001, Day 1): C (less than 50% necrosis)
- Sum of % necrosis in Rye grass (Lolium perenne; Dose 0.0001, Day 3): C (less than 50% necrosis)
- Sum of % necrosis in Rye grass (Lolium perenne; Dose 0.0001, Day 7): C (less than 50% necrosis)
- Sum of % necrosis in Rye grass (Lolium perenne; Dose 0.0001, Day 10): C (less than 50% necrosis)
- Sum of % necrosis in Rye grass (Lolium perenne; Dose 0.0001, Day 14): A (over 80% necrosis)
- Sum of % necrosis in Rye grass (Lolium perenne; Dose 0.0001, Day 21): A (over 80% necrosis)
- Sum of % necrosis in Rye grass (Lolium perenne; Dose 0.0005, Day 0): C (less than 50% necrosis)
- Sum of % necrosis in Rye grass (Lolium perenne; Dose 0.0005, Day 1): C (less than 50% necrosis)
- Sum of % necrosis in Rye grass (Lolium perenne; Dose 0.0005, Day 3): C (less than 50% necrosis)
- Sum of % necrosis in Rye grass (Lolium perenne; Dose 0.0005, Day 7): C (less than 50% necrosis)
- Sum of % necrosis in Rye grass (Lolium perenne; Dose 0.0005, Day 10): C (less than 50% necrosis)
- Sum of % necrosis in Rye grass (Lolium perenne; Dose 0.0005, Day 14): C (less than 50% necrosis)
- Sum of % necrosis in Rye grass (Lolium perenne; Dose 0.0005, Day 21): C (less than 50% necrosis)
- Sum of % necrosis in Peas (peas; Dose 0.000001, Day 0): C (less than 50% necrosis)
- Sum of % necrosis in Peas (peas; Dose 0.000001, Day 1): C (less than 50% necrosis)
- Sum of % necrosis in Peas (peas; Dose 0.000001, Day 3): C (less than 50% necrosis)
- Sum of % necrosis in Peas (peas; Dose 0.000001, Day 7): C (less than 50% necrosis)
- Sum of % necrosis in Peas (peas; Dose 0.000001, Day 10): C (less than 50% necrosis)
- Sum of % necrosis in Peas (peas; Dose 0.000001, Day 14): C (less than 50% necrosis)
- Sum of % necrosis in Peas (peas; Dose 0.000001, Day 21): C (less than 50% necrosis)
- Sum of % necrosis in Peas (peas; Dose 0.000005, Day 0): C (less than 50% necrosis)
- Sum of % necrosis in Peas (peas; Dose 0.000005, Day 1): C (less than 50% necrosis)
- Sum of % necrosis in Peas (peas; Dose 0.000005, Day 3): C (less than 50% necrosis)
- Sum of % necrosis in Peas (peas; Dose 0.000005, Day 7): C (less than 50% necrosis)
- Sum of % necrosis in Peas (peas; Dose 0.000005, Day 10): C (less than 50% necrosis)
- Sum of % necrosis in Peas (peas; Dose 0.000005, Day 14): B (50%-80% necrosis)
- Sum of % necrosis in Peas (peas; Dose 0.000005, Day 21): B (50%-80% necrosis)
- Sum of % necrosis in Peas (peas; Dose 0.00001, Day 0): C (less than 50% necrosis)
- Sum of % necrosis in Peas (peas; Dose 0.00001, Day 1): C (less than 50% necrosis)
- Sum of % necrosis in Peas (peas; Dose 0.00001, Day 3): C (less than 50% necrosis)
- Sum of % necrosis in Peas (peas; Dose 0.00001, Day 7): C (less than 50% necrosis)
- Sum of % necrosis in Peas (peas; Dose 0.00001, Day 10): B (50%-80% necrosis)
- Sum of % necrosis in Peas (peas; Dose 0.00001, Day 14): A (over 80% necrosis)
- Sum of % necrosis in Peas (peas; Dose 0.00001, Day 21): A (over 80% necrosis)
- Sum of % necrosis in Peas (peas; Dose 0.00005, Day 0): C (less than 50% necrosis)
- Sum of % necrosis in Peas (peas; Dose 0.00005, Day 1): C (less than 50% necrosis)
- Sum of % necrosis in Peas (peas; Dose 0.00005, Day 3): C (less than 50% necrosis)
- Sum of % necrosis in Peas (peas; Dose 0.00005, Day 7): C (less than 50% necrosis)
- Sum of % necrosis in Peas (peas; Dose 0.00005, Day 10): B (50%-80% necrosis)
- Sum of % necrosis in Peas (peas; Dose 0.00005, Day 14): A (over 80% necrosis)
- Sum of % necrosis in Peas (peas; Dose 0.00005, Day 21): A (over 80% necrosis)
- Sum of % necrosis in Peas (peas; Dose 0.0001, Day 0): C (less than 50% necrosis)
- Sum of % necrosis in Peas (peas; Dose 0.0001, Day 1): C (less than 50% necrosis)
- Sum of % necrosis in Peas (peas; Dose 0.0001, Day 3): C (less than 50% necrosis)
- Sum of % necrosis in Peas (peas; Dose 0.0001, Day 7): C (less than 50% necrosis)
- Sum of % necrosis in Peas (peas; Dose 0.0001, Day 10): B (50%-80% necrosis)
- Sum of % necrosis in Peas (peas; Dose 0.0001, Day 14): A (over 80% necrosis)
- Sum of % necrosis in Peas (peas; Dose 0.0001, Day 21): A (over 80% necrosis)
- Sum of % necrosis in Peas (peas; Dose 0.0005, Day 0): C (less than 50% necrosis)
- Sum of % necrosis in Peas (peas; Dose 0.0005, Day 1): C (less than 50% necrosis)
- Sum of % necrosis in Peas (peas; Dose 0.0005, Day 3): C (less than 50% necrosis)
- Sum of % necrosis in Peas (peas; Dose 0.0005, Day 7): C (less than 50% necrosis)
- Sum of % necrosis in Peas (peas; Dose 0.0005, Day 10): C (less than 50% necrosis)
- Sum of % necrosis in Peas (peas; Dose 0.0005, Day 14): C (less than 50% necrosis)
- Sum of % necrosis in Peas (peas; Dose 0.0005, Day 21): A (over 80% necrosis)
